Data published in US5679641A, “Peptides of human P53 protein for use in human T cell response inducing compositions, and human P53 protein-specific cytotoxic t-lymphocytes” (Rijksuniversiteit Leiden, priority 1992, dated 1997).
No end group written: not given here.

Legend:
HLA-A2.1 molecule = molecular target: T1, HLA-A2.1 molecule (Homo sapiens, UniProt P04439, D140Y/D185E/D98H/E176V/E277Q/G131W/G231S/I119V/I121R/I166T/I218V/L300P/L318F/N151K/N90K/P208A/P217A/Q86G/Q94H/R138H/R169H/T345S); experiment: Peptide binding: upregulation of HLA-A2.1 expression on (174.CEM) T2 cells, FACScan; format: cell-based; details: for fluorescence ratio (i.e. binding ability): 200 μg/ml peptide, 16 hours at 37° C., (174.CEM) T2 cells, antibody BB7.2, mean fluorescence with peptide divided by without, positive when ratio of 1.2 is reached
T1 construct: endogenous in cells; host or cells: 174.CEM T2 (antigen-processing-defective human T x B hybrid cell line, provided by P. Cresswell)

HLA-A2.1 positive PBL = experiment: Induction of primary in vitro CTL response with peptide loaded 174CEM.T2 cells, cloning of CTL; format: cell-based, human; details: peptide loaded antigen processing defective cell line 174.CEM T2, peptide 80 μg/ml, PBL of healthy HLA-A2.1 positive donor
Procedure: Responder T cells are included in mononuclear white blood cells (PBL) of an HLA-A2.1 positive healthy donor. The PBL were separated from a buffycoat by Ficoll procedure (LYMPHOPREP of Nycomed-pharma, Oslo, Norway, cat. no. 105033) and washed two times in RPMI 1640 (Gibco Paislan, Scotland, cat. no. 041-02409) supplemented with 30% pooled human serum (tested for its capacity to support mixed lymphocyte cultures), 2 mM glutamine (ICN Biochemicals, Inc., Costa Mesa, Calif., USA, cat. no. 15-801-55), penicillin (100 IU/ml, Brocades Pharma, Leiderdorp, The Netherlands), kanamycin ([…], Sigma, St. Louis, Mo., USA).
174CEM.T2 (T2) cells in a concentration of 2×10^6 per ml were incubated for 13 hours at 37° C. in a T25 flask (Falcon, Becton & Dickinson, Plymouth, England, cat. no. 3013) in serum-free ISCOVE's medium (Biochrom KG, Seromed, Berlin, Gemany, cat. no. F0465) with glutamine (2 mM, ICN Biochemicals Inc., Costa Mesa, Calif., USA, cat. no. 15-801-55) and antibiotics as mentioned under 2 and individual p53 peptides at a final concentration of 80 μg/ml. Subsequently the T2 cells were spun down and treated at a density of 20×10^6 cells/ml with Mitomycin C (final concentration 50 μg/ml) in serum-free RPMI 1640 (manufacturer see 2) medium during one hour at 37° C. Thereafter the T2 cells were washed three times in RPMI 1640. […]

Compound | fluorescence ratio (i.e. binding ability) (HLA-A2.1 molecule) | binding to HLA-A2.1 molecule (in words) (HLA-A2.1 molecule; 174.CEM T2 cells, mean HLA-A2.1 fluorescence) | primary in vitro human CTL response against the peptide (HLA-A2.1 positive PBL)
ALNKMFYQL [compound 27] | 1.2 | – | –
LLPENNVLS [compound 3, residues 25-33 of human p53] | 1.7 | strong ability to bind to HLA-A2.1 | possible so far to generate a primary in vitro human CTL response
CSCC[C@H](NC(=O)[C@H](CCCCN)NC(=O)[C@H](CC(N)=O)NC(=O)[C@H](CC(C)C)NC(=O)[C@H](C)N)C(=O)N[C@@H](Cc1ccccc1)C(=O)N[C@@H](CS)C(=O)N[C@@H](CCC(N)=O)C(=O)N[C@@H](CC(C)C)C(=O)N[C@@H](C)C(=O)O [compound 11, ALNKMFCOLA] | 1.4 | – | –
KLFCQLAXT (KLFCQLAKT) [compound 29, residues 132-140 of human mp53 (mutant p53)] | 1.3 | – | –
